# Data as given in patent US20250376480A1, “COMPOUND FOR LOSING WEIGHT AND IMPROVING GUT MICROBIOTA COMPOSITION AND COMPOSITION THEREOF” (SUNWAY BIOTECH CO., LTD., priority 2024, published 2025).
# Marks after values point to notes of the source that are not given here.
# Experiments:
# Type in all cases: in vivo, rat
# [1] = test system: obesity rats induced by high-fat feed; assay: Body weight change of obesity rats induced by high-fat feed
# Procedure: (§1) Forty male rats of 8-week-old Sprague-Dawley (SD) strain were purchased from BioLASCO (Taipei, Taiwan) for the experiment. The growing environment was one with constant indoor temperature (25±1° C.), relative humidity of 60%, and 12 hours of cyclic light (light time from 8:00 to 20:00). The rats were acclimatized for four days before the formal experiment, then reared in 5 groups of 8 rats each for 8 weeks and were fed in an ad libitum feeding manner, and their body weight, food intake and water intake were measured at regular intervals during the experimental period.
# The feeding dosage was calculated according to the method of “Estimating the maximum safe starting dose in initial clinical trials for therapeutics in adult healthy volunteers” published by the U.S. Food and Drug Administration in 2005. Provided that an adult of 60 kg was used as the base, the principle of dosage conversion is 6.2 times of the recommended daily intake of mg/kg bw/day for human as the recommended daily intake of mg/kg bw/day for rat, and the rat group is configured and fed with the dosage as shown in Table 1. The formulae are as follows: Dose intake per kilogram of body weight in rats=Recommended intake in humans÷Body weight 60 kg×6.2, and thus the daily dose intake per kilogram of body weight in rats can be calculated.
# (§2) The experimental rats were divided into groups, and the obesity rats were induced by high-fat feed as follows (Please refer to Table 1). • i. NOR Group: Normal animal group. • ii. HF Group: High-fat control group including obesity rats induced by high-fat feed. • iii. RL Group: Obesity rats induced by high-fat feed and tube-fed daily with red yeast rice powder, equivalent to 0.5 g of red yeast rice containing 1.5 mg of Monascinol (compound having the structure of Formula (I)) per day consumed by an adult of 60 kg. • iv. RH Group: Obesity rats induced by high-fat feed and tube-fed red yeast rice powder daily, equivalent to 2 g of red yeast rice containing 6 mg of Monascinol (compound having the structure of Formula (I)) per day consumed by an adult of 60 kg. • V. Msol Group: Obesity rats induced by high-fat feed and tube-fed Monascinol (compound having the structure of Formula (I)) powder daily, equivalent to 3 mg of Monascinol (compound having the structure of Formula (I)) powder per day consumed by an adult of 60 kg.
# (4) Test Substance Feeding Method: The test substance was administered orally by tube feeding, and the concentration of the test substance was adjusted by using reverse osmosis water. 2.0 mL of sterile plastic syringes with stainless steel feeding pins were used to feed each group of test substance daily. […]
# The body weight of rats was measured weekly and the changes in body weight of each group were compared at the end of the experiment.
# [2] = test system: obesity rats induced by high-fat feed; assay: Body fat mass and body fat rate (perirenal and epididymal fat) of high-fat diet rats
# Procedure: as §1, §2
# (§3) (4) Test Substance Feeding Method: The test substance was administered orally by tube feeding, and the concentration of the test substance was adjusted by using reverse osmosis water. 2.0 mL of sterile plastic syringes with stainless steel feeding pins were used to feed each group of test substance daily. Stainless steel feeding needles were soaked in 70% alcohol solution and rinsed with sterile distilled water several times before use. Each group of test animals was administered the test substance once a day for 8 weeks.
# At the time of sacrifice, fatty tissues surrounding the kidneys and the epididymis (perirenal and epididymal fatty tissues) of the experimental animals were removed, and the their weights were measured and recorded. The body fat rate was calculated as follows: Body fat efficiency=(fat weight/body weight)×100%
# [3] = test system: obesity rats induced by high-fat feed; assay: Fecal lipid extraction and determination (TC, TG)
# Procedure: as §2, §3
# (§4) 0.1 g of liver tissue or fecal powder was weighed and 1 mL of chloroform:methanol (2:1, v/v volume ratio) was added, and homogenized with a tissue homogenizer and centrifuged to obtain the supernatant. The supernatant was then air-dried to remove the solvent, and the sample was dissolved by adding dimethyl sulfoxide (DMSO), and the extracts were kept at −20° C. The TC concentration was analyzed using a commercially available biochemical reagent (Model No. BXC 0261, Fortress), and the TG concentration was analyzed using a commercially available biochemical reagent (Model No. BXC 0271, Fortress), as per the kit instruction manual.
# [4] = test system: obesity rats induced by high-fat feed; assay: Serum biochemical analysis (TC, TG) of high-fat diet rats
# Procedure: as §2, §3
# (5) Sacrificial Blood Sampling: At the 8th week, the rats fasted for 12-14 hours before blood sampling. […] Blood samples were centrifuged with the conditions of 4° C. and 3,000×g for 15 min.
# (§5) The animals fasted for 16 hours before sacrifice, and carbon dioxide was used for asphyxiation during sacrifice. After making sure that there was no heartbeat, blood was drawn and organs were collected. […] After blood collection, the needle was slowly withdrawn from the blood vessel and the blood was placed into a 2 mL eppendorf tube and centrifuged at 10,000×g for 10 min. The upper serum layer was separated into eppendorf tubes and stored in a −20° C. freezer for future analysis.
# The test was performed using a biochemical autoanalyzer (Model No.: Beckman-700, purchased from Fullerton, California, USA). The items measured were Total Cholesterol (TC), and Triglyceride (TG).
# [5] = test system: gut microbiota of high-fat diet rats; assay: Gut microbiota fecal analysis (full-length 16S sequencing) of high-fat diet rats
# Procedure: About 0.3 g of fresh feces was collected into 1.5 mL of eppendorf before fasting for sacrifice, sealed with parafilm, stored at −80° C. for analysis, and sent to BioTools (New Taipei, Taiwan) for analysis.
# Total genomic DNA (QIAamp PowerFecal DNA, Qiagen) was extracted from the samples. The DNA concentration was determined by Qubit 4.0 fluorometer (Thermo Scientific) and adjusted to 1 ng/μL. The full-length 16S gene (V1-V9 region) was amplified by 16S gene-specific primers with barcodes (Forward primer 1): 5′ Phos/GCATC-16-base barcode-Sequence ID Number 11, Reverse primer 1: 5′Phos/GCATC-16-base barcode—Sequence ID Number 12). PCR reactions were performed using KAPA HiFi HotStart ReadyMix (Roche): at 95° C. for 3 min. and 20-27 cycles (Sample Dependency): at 95° C. for 30 sec., at 57° C. for 30 sec., at 72° C. for 60 sec; at 72° C. for 5 min., and finally stored at 4° C. for future use. PCR products were monitored on 1% agarose gels. Samples of approximately 1500 bp bright bands were selected and purified by using AMPure PB Beads for SMRTbell library preparation.
# SMRTbell libraries were prepared based on full-length 16S gene amplifications with barcoded primers used in the Multiplex SMRTbell Library Preparation and Sequencing Program (Pacbio). Sequencing was performed in circular consensus sequencing (CCS) mode on a PacBio Sequel Ile instrument, generating HiFi read with a Phred Scale=30. The DNA to be tested will be sequenced iteratively. By comparing the results of the reverse sequencing, sequencing errors will be corrected, ultimately achieving a high accuracy of >99.9% (QV30).
# Information Analysis (Sequential data processing/denoising and species annotation) The sample data from the downstream data were sorted out according to the Barcode sequence and PCR amplification primer sequences. After the removal of the barcodes and primer sequences, the data were imported into QIIME2 (v2019.7.0; https://qiime2.org/) and all the sequences of the samples were saved into one corresponding object Artifacts. QIIME2 cutadapt was used to remove the amplicon variant primers (forward primer 2: Sequence ID Number 13; reverse primer 2: Sequence ID Number 14), and the sequence with the primers removed will be used as QIIME2 DADA2. Input Reads.
# The denoising analysis began with the filtering of sequences, setting each sequence to be cropped to a specified length (forward reads: 280 bp; reverse reads: 220 bp) and setting the MaxEE (forward reads: 2; reverse reads: 2) parameter as the maximum number of expected error bases allowed for the sequence. This was followed by denoising, the core algorithm of DADA2 utilizing the information of sequence abundance, quality score, and relationships between sequences to correct the […] of sequencing errors and to infer the real sequences. Splicing was performed after denoising each end of the sequence (minimum overlap length 20 bp; overlap region was not allowed to be mismatched). Finally, the spliced sequences are subjected to chimera removal by comparing the sequences with higher abundance in the sample. If a sequence with low abundance is similar to several sequences, it can be recognized as a chimera and removed from the sample. Sequences after denoising analysis were used as representative sequences of Amplicon Sequence Variants (ASVs) and can be obtained from the ASV table for subsequent species annotation. The QIIME2 feature-classifier (v2019.7.0; https://qiime2.org/) was used to select machine learning-based classification methods and to train naïve bayes classifiers for different databases and specific variability regions. The taxonomic annotation of ASVs represented by this classifier yields taxonomic information and the composition of the microbial phyla of each sample at each classification level including kingdom, phylum, class, order, family, genus, and species.
# Welch's t-test was analyzed by STAMP (v2.1.3), and the intergroup species differences were plotted as bar charts. […]
# [6] = test system: obesity rats induced by high-fat feed; assay: Liver lipid extraction and determination (TC, TG)
# Procedure: as §2, §3, §4
# [7] = test system: obesity rats induced by high-fat feed; assay: Liver weight and liver/body weight of high-fat diet rats
# Procedure: as §1, §2, §3, §5
# [8] = Msol: Monascinol 0.31 mg/kg BW/day (adult 3 mg/day), tube-fed 8 weeks, high-fat diet SD rats, mean±SD
# [9] = p<0.05, 8 weeks, RL 0.5 g/day, RH 2 g/day, Msol 3 mg/day (adult equivalent)
# [10] = vs HF group, 8 weeks, RL 0.5 g/day, RH 2 g/day, Msol 3 mg/day (adult equivalent)
# [11] = FIGS. 9A-9D, high-fat diet rats, red yeast rice 0.5 and 2 g/day, Monascinol 3 mg/day
# [12] = order level, FIG. 7C, high-fat diet rats, red yeast rice 0.5 and 2 g/day, Monascinol 3 mg/day
# [13] = phylum level, FIG. 7A, high-fat diet rats, red yeast rice 0.5 and 2 g/day, Monascinol 3 mg/day
# [14] = 8 weeks, RL 0.5 g/day, RH 2 g/day, Msol 3 mg/day (adult equivalent)
smiles,measurement,setting,value
"C/C=C/C1=CC2=C(CO1)C(=O)C1(C)OC(=O)C(C(O)CCCCC)C1C2 (stereo not drawn) [Msol, Monascinol]",Weight 8 week,[1]; [8],512.1 ± 31.1^a g
same,Weight gain,[1]; [8],220.8 ± 38.8^a g
same,Weight before Sacrifice,"[1]; after fasting, Msol: Monascinol 0.31 mg/kg BW/day (adult 3 mg/day), tube-fed 8 weeks, high-fat diet SD rats, mean±SD",488.5 ± 31.7^a g
same,weight gain compared with HF group,[1]; [9],significantly reduced
same,Fat/body weight,[2]; [8],3.35 ± 0.55^b %
same,body fat mass compared with HF group,[2]; [9],significantly reduced
same,body fat percentage compared with HF group,[2]; [9],significantly reduced
same,Fat weight,"[2]; perirenal and epididymal fat, Msol: Monascinol 0.31 mg/kg BW/day (adult 3 mg/day), tube-fed 8 weeks, high-fat diet SD rats, mean±SD",17.95 3.55^b g
same,Feces TC,[3]; [8],46.22 ± 4.72^c mg/g
same,Feces TG,[3]; [8],61.27 4.80^cd mg/g
same,accumulation of TG in the body (from fecal TG content),[3]; [10],effective in reducing
same,excretion of TC (feces),[3]; [10],significantly promoted
same,TC in serum,[4]; [8],65.0 ± 10.4^b mg/dL
same,TG in serum,[4]; [8],61.7 ± 10.7^a mg/dL
same,serum TC concentration compared with HF group,[4]; [9],reduced
same,serum TG concentration compared with HF group,"[4]; p<0.05, 8 weeks, red yeast rice at all doses (0.5 and 2 g/day), Msol 3 mg/day (adult equivalent)",significant reduction effect
same,F/B ratio (abundance ratio of Firmicutes to Bacteroidetes),"[5]; FIG. 7A, high-fat diet rats, red yeast rice 0.5 and 2 g/day, Monascinol 3 mg/day",decrease
same,content of B. thetaiotaomicron in the intestines,[5]; [11],most significant
same,intestinal abundance of Dubosiella newyorkensis,[5]; [11],increase
same,bacterial abundance of Bifidobacteriales in the intestine,[5]; [12],increased
same,intestinal abundance of Verrucomicrobiales,[5]; [12],increased
same,intestinal abundance of Eubacteriales,"[5]; order level, FIG. 8, HF group 50.14%, NOR 35.07%, MSol: Monascinol adult 3 mg/day, 8 weeks, high-fat diet rats",43.21%
same,abundance of Bacteroidetes,[5]; [13],increase
same,abundance of Firmicutes,[5]; [13],decrease
same,abundance of A. muciniphila,"[5]; species level, FIG. 7F, high-fat diet-induced obesity rats, red yeast rice 0.5 and 2 g/day, Monascinol 3 mg/day",increased
same,hepatic TC levels compared with HF group,[6]; [14],effective in reducing
same,Liver TC,[6]; [8],5.05 ± 0.54^a mg/g
same,Liver TG,[6]; [8],14.40 ± 1.57^a mg/g
same,liver TG content compared with HF group,[6]; [9],significantly different from the HF group
same,liver-to-body-weight ratio compared with HF group,[7]; [14],reduction
same,Liver Weight/Body Weight,[7]; [8],3.28 ± 0.37^b %
same,Liver weight,[7]; [8],16.84 2.31^b g
same,liver weight compared with HF group,[7]; [9],significant decrease
